From paper PMC11928584, “H105A peptide eye drops promote photoreceptor survival in murine and human models of retinal degeneration” (Communications Medicine, 2025)
Where a SMILES comes first, the peptide text is derived from it.

Tests used:
Type in all cases: in vivo, mouse
[1] = tested on: photoreceptors of rd10/Serpinf1-/- mice; experiment: PSVue-550 fluorescence fundoscopy of photoreceptor cell death (PS externalization); conditions: daily eye drops 5 µl of 1 mg/ml from P15, PSVue-550 fundoscopy P21
Description: (§1) Fluorescence fundoscopy with a cell death probe was chosen as a simple method for monitoring photoreceptor cell death in alive animals. A fluorescent probe, bis (zinc^2+-dipicolylamine)-550, (PSVue®-550) (Molecular Targeting Technologies Inc, cat. P-1005) was reconstituted in Hanks’ Balanced Salt Solution (HBSS, Quality Biological, cat. 114-062-101) according to the manufacturer’s instructions[28],[36]. This probe is suitable for in vivo use to specifically and transiently label dying photoreceptors, such as in living rats with retinal degeneration the Royal College of Surgeons rat model, in a non-invasive and non-toxic method without the need of intraocular injection. Briefly, a stock of 1 mM solution of PSVue®-550 was stored in the dark at 4 °C and used within 14 days directly as eye drop. After 3-4 h of light onset each mouse received eye drops of 5–10 μl of 1 mM PSVue®-550 in the left eye and HBSS in the right eye as control. The eye drop volume was chosen such that the eye cavity was filled without spillage outside the eye, and it was modified depending on eye size. […] To obtain in vivo retinal images of fundi, at 24 h after the probe was administered, the mice were anesthetized, and pupils were dilated with 1% tropicamide for 5 min and kept hydrated with GenTeal. Fluorescence was imaged using a retinal imaging microscope (Micron III, Phoenix Research Labs) using an FF02- 475/50 nm excitation filter (Semrock, Inc.). We observed some variability in optic nerve (ON) fluorescence that could not be readily explained, so the optic nerve was excluded from analyses in all samples.
(§2) To determine the natural history of photoreceptor death of rd10 and rd10/Serpinf1^-/- mice, we assessed photoreceptor cell death in live mice using the fluorescent probe termed PSVue® 550 to monitor PS externalization by fluorescence fundoscopy (Supplementary Fig. 2). Given the reports about the retinas of rd10 mice starting to show histological changes at P16, and with a peak in the number of TUNEL+ nuclei in the ONL at P17-18[13], we monitored PS externalization in photoreceptors of these mice undergoing degeneration before death onset. Eye drops of 1 mM PSVue® 550 solution in HBSS were administered to left eyes and HBSS (vehicle) to their contralateral right eyes of each mouse at ages P16, P20, P22 or P24. PS externalization was determined by fluorescence fundoscopy 24 h post-administration. PSVue labeling of phosphatidylserine (PS) externalization associated with photoreceptor cell death in the rd10 retina (Supplementary Figs. 2, 3).
(§3) Fig. 2 Effect of PEDF peptide eye drops on protection against photoreceptor cell death in rd10 and rd10/Serpinf1^-/- mice. a Illustration of the experimental timeline of peptide application. Eye drops containing 5 µl of 17-mer, H105A, or R99A peptides in HBSS were administered daily to eyes of rd10 and rd10/Serpinf1^-/- mice from P15 to P20. Vehicle (HBSS) was applied in contralateral eyes. At P20, PSVue® was applied via eye drops, and fluorescence fundoscopy was conducted at P21 to assess photoreceptor cell death. RE and LE refer to the right and left eyes, respectively. b Fluorescence fundoscopy micrographs. Representative fluorescence fundoscopy images of retinas from mice treated as in Panel a with eyedrops of 1 mg/ml of each peptide. Quantification of fluorescence intensity was performed using ImageJ, with average intensity values corrected for background fluorescence from eyes that had not received PSVue or peptides. Each line represents data from one animal comparing treated and contralateral eyes, with five eyes (n = 5) per condition. Statistical significance was determined by paired t-test (****p ≤ 0.0001, and ns > 0.05). Scale bar = 0.5 mm. c Dose response of peptide eye drops. Representative fluorescence fundoscopy micrographs showing retinas treated with varying concentrations of 17-mer and H105A peptides (0.0 mg/ml to 1.0 mg/ml) in rd10 and rd10/Serpinf1^-/- mice. […]

[2] = tested on: photoreceptors of rd10 mice; experiment: as above; conditions: daily eye drops 5 µl of 1 mg/ml from P15, PSVue-550 fundoscopy P21
Description: as §1, §2, §3

[3] = tested on: retinal function of rd10 mice; experiment: Electroretinogram (scotopic a- and b-wave), rd10 mice; conditions: daily eye drops of labeled peptide P15-P20, ERG P21, n=3
Protocol: Electroretinogram (ERG) for rd10 and rd10/Serpinf1^-/- mice were dark-adapted overnight and recorded in both eyes of each animal using an Espion E2 system with ColorDome (Diagnosys LLC) with a heated surface. Briefly, pupils were dilated with 1% tropicamide (Akorn, NDC: 17478-101-12) for 10 min and mice were anesthetized with intraperitoneal injection of Zetamine™ (Ketamine hydrochloride injection, USP; VetOne, NDC 13985-584-10) at 92.5 mg/kg, and AnaSed® (xylazine injection, Akorn Pharmaceuticals, NDC 59399-110-20) at 5.5 mg/kg. Mice were placed on the heated surface and electrodes were placed in the mouth and a subdermal platinum needle electrode was placed in the back of the mouse to serve as ground. Responses were elicited with increasing light impulses with intensity from 0.0001 to 10 cd-seconds per meter squared (cd.s/m^2). Amplitudes for a-wave were measured from stimulus to the trough of the a-wave and b-wave amplitudes were measured from a-wave to b-wave trough or peak. The values from the a and b waves for both eyes were exported to Microsoft Excel to obtained amplitude values for each mouse.
Fig. 5 Effect of daily eyedrops of PEDF peptides on ERG a-wave and b-wave retinal function. a Illustration of the experimental timeline of peptide application. RE and LE refer to the right and left eyes, respectively. Representative ERG waveforms for rd10 (b) and rd10/Serpinf1^-/- (c) mice at P21 in response to a light flash (1 cd.s/m²). Amplitude (y-axis) is plotted against time in milliseconds (ms, x-axis). Treatments are indicated to the right of each plot and are color coded, with control wild type C57BL/6 J mice without peptide treatment shown in blue. A-wave and b-wave are indicated by arrows. Photoreceptor a-wave amplitudes. Averages of photoreceptor a-wave amplitudes for rd10 (d) and rd10/Serpinf1^-/- (e) mice as a function of light intensity (cd/s.m², x-axis). Responses of animals treated with 17-mer are shown in green, H105A in black, and vehicle (HBSS) in red. Wildtype responses are shown in blue. Bipolar cell b-wave amplitudes. Averages of bipolar cell b-wave amplitudes for rd10 (f) and rd10/Serpinf1^-/- (g) mice as a function of light intensity (cd/s.m², x-axis), with treatments as indicated in panels. The number of mice evaluated for the data shown in Panels d-g was five (n = 5) for each rd10, rd10/Serpinf1^-/- and wild type. Each data point represents the average ± SD of each genotype, analyzed by ANOVA with Dunnett’s multiple comparisons. Statistical significance between H105A and vehicle is indicated by ##p ≤ 0.01, ###p ≤ 0.001, ####p ≤ 0.0001, and between H105A and 17-mer by **p ≤ 0.01, ***p ≤ 0.001, ****p ≤ 0.0001.

Compound	PS externalization / photoreceptor cell death vs vehicle [1]	PS externalization / photoreceptor cell death vs vehicle [2]	ERG a-wave and b-wave retinal function [3]
CC[C@H](C)[C@H](NC(=O)[C@H](CC(=O)O)NC(=O)[C@@H]1CCCN1C(=O)[C@H](CO)NC(=O)[C@H](CO)NC(=O)[C@@H](NC(=O)[C@H](CC(C)C)NC(=O)[C@H](CC(=O)O)NC(=O)[C@H](Cc1ccc(O)cc1)NC(=O)[C@H](Cc1ccc(O)cc1)NC(=O)[C@H](CC(C)C)NC(=O)[C@H](C)NC(=O)[C@H](CCCNC(=N)N)NC(=O)[C@H](C)NC(=O)[C@@H](NC(=O)[C@@H](NC(=O)[C@H](CO)NC(=O)[C@H](CCC(=O)O)NC(=O)[C@@H](NC(=O)[C@H](CCCNC(=N)N)NC(=O)[C@H](CCC(N)=O)NC(=O)[C@H](CCC(=O)O)NC(=O)[C@H](C)NC(=O)CNC(=O)[C@H](CC(C)C)NC(=O)[C@@H](N)CO)[C@@H](C)O)[C@@H](C)CC)[C@@H](C)CC)[C@@H](C)CC)C(=O)N[C@@H](Cc1c[nH]cn1)C(=O)NCC(=O)N[C@H](C(=O)O)[C@@H](C)O [29-mer[H105A]] (H-SLGAEQRTESIIARALYYDLISSPDIHGT-OH)	no reduction in photoreceptor cell death	no reduction in photoreceptor cell death	
CC[C@H](C)[C@H](NC(=O)[C@H](CC(=O)O)NC(=O)[C@@H]1CCCN1C(=O)[C@H](CO)NC(=O)[C@H](CO)NC(=O)[C@@H](NC(=O)[C@H](CC(C)C)NC(=O)[C@H](CC(=O)O)NC(=O)[C@H](Cc1ccc(O)cc1)NC(=O)[C@H](Cc1ccc(O)cc1)NC(=O)[C@H](CC(C)C)NC(=O)[C@H](C)NC(=O)[C@H](CCCNC(=N)N)NC(=O)[C@H](Cc1c[nH]cn1)NC(=O)[C@@H](NC(=O)[C@@H](NC(=O)[C@H](CO)NC(=O)[C@H](CCC(=O)O)NC(=O)[C@@H](NC(=O)[C@H](CCCNC(=N)N)NC(=O)[C@H](CCC(N)=O)NC(=O)[C@H](CCC(=O)O)NC(=O)[C@H](C)NC(=O)CNC(=O)[C@H](CC(C)C)NC(=O)[C@@H](N)CO)[C@@H](C)O)[C@@H](C)CC)[C@@H](C)CC)[C@@H](C)CC)C(=O)N[C@@H](Cc1c[nH]cn1)C(=O)NCC(=O)N[C@H](C(=O)O)[C@@H](C)O [29-mer] (H-SLGAEQRTESIIHRALYYDLISSPDIHGT-OH)	no reduction in photoreceptor cell death	no reduction in photoreceptor cell death	
AlexaFl-QATESIIHRALYYDLIS-COOH [AlexaFl-488-R99A, R99A peptide conjugated to Alexa Fluor 488 dye]			showed no improvement
AlexaFl-QRTESIIARALYYDLIS-COOH [AlexaFl-488-H105A, H105A peptide conjugated to Alexa Fluor 488 dye]			improved retinal function
AlexaFl-QRTESIIHRALYYDLIS-COOH [AlexaFl-488-17-mer, 17-mer peptide conjugated to Alexa Fluor 488 dye]			improved retinal function
